EC50, IC50 and outcome data for 72 molecules are collected here from PubChem BioAssay AID179 (DTP/NCI, 2004).

Molecules are shown by their SMILES. Activity calls are given as the source filed them.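 Rule for the calls: active = compounds giving half or more protection of infected cells from virus-caused growth loss, again on retest; inactive = the rest.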

The subject of this assay is CEM cells HIV-1 protection, formazan growth assay. The assay is described as follows: NCI AIDS Antiviral Assay. The conditions noted are these: for IC50: measured here: growth of uninfected CEM cells. The gist of the method:
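Category rules: moderately active means at least 50% protection on retest, and confirmed active means 100% protection reproducibly. The underlying data came from a formazan growth assay in HIV-1-infected CEM cells.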

Take `Cc1cn(C2CC(O)C(COC(=O)CCCCCCCCCCCN=[N+]=[N-])O2)c(=O)[nH]c1=O` (stereo not given): the EC50 (in general, the concentration that produces a half-maximal response) is 10 µM and the IC50 – broadly, the concentration that gives 50% inhibition – is 21.4 µM.

Regarding `CCN(CC)CCCCC1CCN(CC(=O)N2CC(C)C(=O)Nc3ccccc32)CC1` (stereo not given), the EC50 was more than 251 µM and the IC50 is more than 251 µM. Regarding `COc1c(O)c2c(=O)cc(OC)c3c4c(OC)cc(=O)c5c(O)c(OC)c(C[C@H](C)O)c(c(c1CC(C)O)c23)c54` (stereo not given in full), the outcome was inactive. Regarding `N#CC(C(=N/O)/C(=N\O)C(C#N)c1ccccc1)c1ccccc1` (stereo not given), the EC50 is more than 794 µM and the IC50 came out at 123 µM. Regarding `O=c1ccc(=O)n(-c2ccccc2)[nH]1`, the EC50 was more than 955 µM and the IC50 was more than 955 µM. With `CCOC(=O)C(=CNC(=S)Nc1ccccc1)C(=O)OCC`, the EC50 was more than 200 µM and the IC50 is more than 200 µM.

Turning to `CC1C(c2ccc(F)cc2)c2cc3c(cc2OC1N1CCCC1)OCO3` (stereo not given), the EC50 was more than 200 µM and the IC50 was 129 µM. Turning to `C[C@]12CC[C@@H]3c4cc(OCC(F)(F)F)c(O)cc4CC[C@H]3[C@@H]1CC[C@@H]2O`, the EC50 is more than 0.2 µM and the IC50 worked out at 0.0676 µM. `N#CC(C(=O)C(=O)Nc1ccc(Cl)cc1)c1ccccc1` (stereo not given): the result was inactive. `Cc1cn(C2OC(CO[Si](C)(C)C(C)(C)C)C(N(C)O[Si](C)(C)C(C)(C)C)C2[Se]c2ccccc2)c(=O)[nH]c1=O` (stereo not given): the EC50 is more than 200 µM and the IC50 was 8.32 µM.

Take `CC(=O)C1=CN=C2C(=O)N(c3ccccc3)N(C)C12C` (stereo not given): the EC50 is more than 200 µM and the IC50 is more than 200 µM. For the molecule `CCCC(C)C(=Nc1ccc(Cl)c(Cl)c1)N(C)C` (stereo not given), the EC50 is more than 200 µM and the IC50 is 28.2 µM. Take `O=C(Nc1ccccc1)C(=O)C(C(=O)c1ccccc1F)C1OC(=O)c2ccccc21` (stereo not given): the EC50 is more than 309 µM and the half-maximal inhibitory concentration (IC50) turned out to be 17.4 µM. For the molecule `[Co].[O-]c1cccnc1C=Nc1ccccc1.[OH3+]`, the EC50 was more than 240 µM and the IC50 turned out to be 35.5 µM.

Consider `CC1C(c2ccc3c(c2)OCO3)c2cc3c(cc2OC1N1CCCC1)OCO3` (stereo not given), for which the EC50 is more than 100 µM and the IC50 is 47.9 µM. For `C=C[C@@]1(O)CC[C@@H](C(C)(C)C)C[C@H]1CC(=C)Br`, the result was inactive. On to `CN1CNC2C(=O)CCC2c2ccccc21` (stereo not given), for which the EC50 was more than 1150 µM and the half-maximal inhibitory concentration (IC50) is 676 µM. Regarding `c1ccc(-c2cc(Nc3ccc4c(c3)OCO4)c3cc(C4CCCCC4)ccc3n2)cc1`, the outcome was inactive.

Take `OC1Cn2cc(Br)c[n+]2C1` (stereo not given): the EC50 was more than 200 µM and the IC50 was more than 200 µM. For the molecule `CCC(=O)[O][Bi]([c]1ccccc1)[c]1ccccc1`, the EC50 was more than 30.9 µM and the IC50 came out at 5.89 µM. The like results for `O=C(c1ccccc1[N+](=O)[O-])C(Br)C(Br)c1ccc(Cl)c(Cl)c1` (stereo not given) were, in that order, more than 20 µM and 1 µM. Take `CC(=O)Nc1cccc(S(=O)(=O)c2cccc(NC(=O)c3ccccc3SC(=O)CCCC[n+]3ccccc3)c2)c1`: the concentration giving a half-maximal response (EC50) is 17.8 µM and the IC50 is more than 200 µM.

`N/N=C(/CS(=O)(=O)c1ccc(Cl)cc1)c1ccccc1`: the EC50 is more than 100 µM and the 50% inhibitory concentration (IC50) was more than 100 µM.

For the molecule `O=C(c1ccccc1)N1C(=O)N(c2ccccc2)C(=Nc2ccccc2)C1=Nc1ccccc1`, the EC50 is more than 200 µM and the IC50 came out at 19.1 µM.

On to `CCOC(=O)CCC(NC(=O)c1ccc(NCc2ccc3nc(-c4ccccc4)c(Cl)nc3c2)cc1)C(=O)OCC` (stereo not given), for which the EC50 is more than 4.79 µM and the half-maximal inhibitory concentration (IC50) was more than 4.79 µM. Consider `CC(=O)NNc1nc(C)c(C(/C=C/c2ccc([N+](=O)[O-])cc2)=N/N)s1`, for which the EC50 was more than 69.2 µM and the IC50 is more than 69.2 µM. In the case of `CCOC(=O)c1cn(CC)c2cc3c(cc2c1=O)CCS3(=O)=O`, the EC50 is more than 200 µM and the IC50 is more than 200 µM. Turning to `O=[N+]([O-])c1cccc2nc3ccccc3c(NCCC[N+]3([O-])CCOCC3)c12`, the EC50 is more than 2 µM and the IC50 worked out at 0.105 µM. For `CCCCn1cc(C(=O)O)c(=O)c2c3sccc3ccc21`, the EC50 is more than 200 µM and the half-inhibitory concentration (IC50) is 22.4 µM.

Consider `CCCCCCCCCC(=O)CC(=O)c1ccc(O)cc1O`, for which the EC50 is more than 117 µM and the IC50 amounted to 69.2 µM. `CC(C)NC(=O)N(Nc1ccccc1)C(C)(C)C`: the EC50 is more than 200 µM and the IC50 came out at 110 µM.

With `Cc1cccc(Nc2cn(CCOc3ccccc3)c(=O)n(CCOc3ccccc3)c2=O)c1`, the EC50 is more than 200 µM and the IC50 was more than 200 µM. With `O=C(CCCN1CCC2(CC1)C(=O)NC(=O)N2c1ccccc1)c1ccc(F)cc1`, the EC50 is more than 200 µM and the 50% inhibitory concentration (IC50) is more than 200 µM.

With `NC(=S)N/N=C/c1cn(CCCl)c2ccccc12`, the EC50 is more than 25.7 µM and the IC50 worked out at 15.8 µM. `Nc1cccnc1NCC1(CO)CCCC1`: the EC50 was more than 200 µM and the IC50 was more than 200 µM. As to `CCN(CC)c1ccc(N=Nc2ccc(N=Nc3c(S(=O)(=O)O)cc4ccc(N)cc4c3O)c(OCCO)c2)cc1`, the EC50 was more than 14.8 µM and the IC50 was more than 14.8 µM. Turning to `O=S(=O)(c1ccc(N=C=S)cc1)N1CCCCC1`, the EC50 is more than 200 µM and the IC50 stood at 97.7 µM. Consider `COc1ccc(NC(C)=O)cc1C1CCC(=O)N1` (stereo not given), for which the outcome was inactive. With `CC(C)(C)C1CCC2(CC1)c1[nH]c3ccccc3c1C1(CCC(C(C)(C)C)CC1)c1[nH]c3ccccc3c12` (stereo not given), the EC50 was more than 7.41 µM and the IC50 is more than 7.41 µM. For the molecule `c1ccc(C2=C(c3ccccc3)Sc3nnc(CCCCCCCCc4nnc5n4NC(c4ccccc4)=C(c4ccccc4)S5)n3N2)cc1`, the EC50 is more than 200 µM and the IC50 worked out at 89.1 µM. Regarding `CCCCCCCCCC=C(c1cc(Cl)c(O)c(C(=O)O)c1)c1cc(Cl)c(O)c(C(=O)O)c1`, the EC50 was 45.7 µM and the IC50 is 49 µM. In the case of `Cc1cc(S(=O)(=O)Nc2nnc3cc(C(F)(F)F)cc(C)n23)c(S)cc1Cl`, the EC50 is 50.1 µM and the 50% inhibitory concentration (IC50) was determined as 132 µM. `CCCCCCCCNC(=O)SCCCC`: the outcome was inactive. Turning to `COCCCCCCCCCCCC(=O)OCC1OC(n2cc(C)c(=O)[nH]c2=O)CC1N=[N+]=[N-]` (stereo not given), the EC50 is 0.0269 µM and the IC50 stood at 34.7 µM. Take `CC(C)=C1C2CCC1C1CSCC21` (stereo not given): the EC50 is more than 115 µM and the IC50 is more than 115 µM.

With `CCOC(=O)C(C(O)c1ccc([N+](=O)[O-])cc1)P(=O)(OCC)OCC` (stereo not given), the EC50 is more than 661 µM and the IC50 turned out to be 93.3 µM. For `N#Cc1c(N)nc([Se]CC(=O)c2ccc(Cl)cc2)c(C#N)c1-c1ccco1`, the EC50 is more than 200 µM and the IC50 is 141 µM.

On to `O=C1C=C(C2CCCO2)C(=O)c2c(O)ccc(O)c21` (stereo not given), for which the result was inactive. In the case of `O=c1c(Cc2ccccc2)c(-c2ccccc2)[nH]n1C1=NCCN1`, the EC50 was more than 200 µM and the IC50 amounted to 19.1 µM. Take `COc1c(-c2ccc3c(c2)OCO3)oc2cc(O)cc(O)c2c1=O`: the EC50 was more than 200 µM and the 50% inhibitory concentration (IC50) was 115 µM.

With `Cc1nc2ccc(Cl)cc2c2c1CCN2c1ccc(F)cc1`, the EC50 was more than 200 µM and the IC50 was determined as 11.5 µM.

Take `O=c1ccc2c(O)c3ccoc3cc2o1`: the EC50 was more than 110 µM and the IC50 stood at 93.3 µM.

On to `COc1ccc(CCCN2c3ccccc3Sc3ccccc32)cc1`, for which the EC50 is more than 10.7 µM and the IC50 is more than 10.7 µM. `O=C(O)c1c(CC(Cc2ccc3c(c2)CCCC3)C(=O)O)ccc2c1CCCC2` (stereo not given): the EC50 was more than 200 µM and the IC50 turned out to be 141 µM. Turning to `Cc1ccnc2c1ccc1nc3ccccc3n12`, the EC50 was more than 200 µM and the IC50 was more than 200 µM. In the case of `CCN(CC)C(=O)c1c(Cl)cc(N(CC)CC)oc1=O`, the EC50 is more than 832 µM and the IC50 is more than 832 µM. Regarding `Cc1ccccc1NC(=O)CC(=O)NNCC(=O)Nc1nnc(-c2ccccc2)s1`, the EC50 is more than 61.7 µM and the IC50 is 46.8 µM. On to `COc1ccc(-c2cc(=O)c3c(OC)c(OC)c(OC)c(OC)c3o2)cc1`, for which the EC50 was more than 120 µM and the IC50 was found to be 110 µM.

For `CN(CC#N)C1CCC[C@]1(O)C#C[Si](C)(C)c1ccccc1` (stereo not given in full), the EC50 was more than 60.3 µM and the IC50 was determined as 57.5 µM. As for `O=C(Nc1cccc(NC(=O)c2nn[nH]n2)n1)c1nn[nH]n1`, the EC50 was more than 200 µM and the IC50 was more than 200 µM. On to `O=C1c2ccccc2-c2oc(=O)c3ccccc3c21`, for which the EC50 is more than 40.7 µM and the 50% inhibitory concentration (IC50) is more than 40.7 µM. In the case of `CCC[CH2][Sn]([CH2]CCC)([O]C(=O)c1ccc(C)c(N)c1)[O]C(=O)c1ccc(C)c(N)c1`, the EC50 was more than 18.6 µM and the half-maximal inhibitory concentration (IC50) was 0.457 µM.

Turning to `Nc1cccc2c1C(=O)c1cccc(NC(=O)c3ccc4c5c(nsc35)-c3ccccc3C4=O)c1C2=O`, the EC50 is more than 15.5 µM and the half-maximal inhibitory concentration (IC50) was more than 15.5 µM. For the molecule `Cc1ccc(S(=O)(=O)NCCCSCCSCCCN)cc1`, the EC50 was more than 257 µM and the IC50 amounted to 41.7 µM.

With `CC1CC(C)(C)N2CCC(C(=O)N3Cc4cc5ccccc5nc4C3)C2O1` (stereo not given), the EC50 is more than 200 µM and the IC50 is more than 200 µM. With `Cc1cc(C)c(-n2c(-c3ccc(Br)cc3)cs/c2=N\N=C2C=C(C(C)(C)C)C(=O)C(C(C)(C)C)=C2)c(C)c1`, the EC50 is more than 2.45 µM and the IC50 is more than 2.45 µM. In the case of `CCc1ccc(Cc2ccc(CC)c(NC(=O)C(=O)C3NC(=S)NC3=O)c2CC)c(CC)c1NC(=O)C(=O)C1NC(=S)NC1=O` (stereo not given), the EC50 is more than 15.1 µM and the IC50 was more than 15.1 µM. In the case of `CC(CN(C)C)/C(=N\Nc1ccccc1)c1ccccc1` (stereo not given), the result was inactive. `NC(=Nc1ccc(S(=O)(=O)Nc2cnc3ccccc3n2)cc1)/N=C(/N)Nc1ccc(Br)cc1`: the EC50 was more than 87.1 µM and the IC50 was more than 87.1 µM. Consider `CC12CCC(=O)N1c1cnccc1N2` (stereo not given), for which the EC50 was more than 200 µM and the IC50 was more than 200 µM.

On to `Oc1ccc(C2CC(O)c3ccccc3O2)cc1` (stereo not given), for which the result was inactive.

In the case of `Cc1cc(-c2ccco2)oc(=O)c1NC(=O)c1cnccn1`, the EC50 was more than 200 µM and the half-inhibitory concentration (IC50) was more than 200 µM.
